The target in the assay is T1, F508del (Homo sapiens, UniProt P13569, DEL508-508).
T1 construct: expressed in transfected cells
In words: Membrane potential optical assay (FRET voltage-sensor dyes), identification of correction compounds. Format: cell-based. The settings on record: NIH3T3 cells stably expressing F508del, procedures described above; for Emax: maximum efficacy, read-out: Max Efficacy; for EC50: modulation of CFTR activity. Here is the method:
(§1) NIH3T3 mouse fibroblasts stably expressing F508del are used for optical measurements of membrane potential. The cells are maintained at 37° C. in 5% CO2 and 90% humidity in Dulbecco's modified Eagle's medium supplemented with 2 mM glutamine, 10% fetal bovine serum, 1×NEAA, β-ME, 1× pen/strep, and 25 mM HEPES in 175 cm^2 culture flasks. For all optical assays, the cells were seeded at 12,000 cells/well in 384-well matrigel-coated plates and cultured for 18-24 hrs at 37° C. for the potentiator assay. For the correction assays, the cells are cultured at 37° C. with and without compounds for 18-24 hours.
Membrane potential optical methods for assaying F508del modulation properties of compounds.
The optical membrane potential assay utilized voltage-sensitive FRET sensors described by Gonzalez and Tsien (See Gonzalez, J. E. and R. Y. Tsien (1995) “Voltage sensing by fluorescence resonance energy transfer in single cells” Biophys J 69(4): 1272-80, and Gonzalez, J. E. and R. Y. Tsien (1997) “Improved indicators of cell membrane potential that use fluorescence resonance energy transfer” Chem Biol 4(4): 269-77) in combination with instrumentation for measuring fluorescence changes such as the Voltage/Ion Probe Reader (VIPR) (See, Gonzalez, J. E., K. Oades, et al. (1999) “Cell-based assays and instrumentation for screening ion-channel targets” Drug Discov Today 4(9): 431-439).
These voltage sensitive assays are based on the change in fluorescence resonant energy transfer (FRET) between the membrane-soluble, voltage-sensitive dye, DiSBAC2(3), and a fluorescent phospholipid, CC2-DMPE, which is attached to the outer leaflet of the plasma membrane and acts as a FRET donor. Changes in membrane potential (Vm) cause the negatively charged DiSBAC2(3) to redistribute across the plasma membrane and the amount of energy transfer from CC2-DMPE changes accordingly. The changes in fluorescence emission were monitored using VIPR™ II, which is an integrated liquid handler and fluorescent detector designed to conduct cell-based screens in 96- or 384-well microtiter plates.
To identify small molecules that correct the trafficking defect associated with F508del; a single-addition HTS assay format was developed. The cells were incubated in serum-free medium for 16 hrs at 37° C. in the presence or absence (negative control) of test compound. As a positive control, cells plated in 384-well plates were incubated for 16 hrs at 27° C. to “temperature-correct” F508del. The cells were subsequently rinsed 3× with Krebs Ringers solution and loaded with the voltage-sensitive dyes. To activate F508del, 10 μM forskolin and the CFTR potentiator, genistein (20 μM), were added along with Cl^−-free medium to each well. The addition of Cl^−-free medium promoted Cl^− efflux in response to F508del activation and the resulting membrane depolarization was optically monitored using the FRET-based voltage-sensor dyes.
• Bath Solution #1: (in mM) NaCl 160, KCl 4.5, CaCl2 2, MgCl2 1, HEPES 10, pH 7.4 with NaOH. • Chloride-free bath solution: Chloride salts in Bath Solution #1 (above) are substituted with gluconate salts. • CC2-DMPE: Prepared as a 10 mM stock solution in DMSO and stored at −20° C. • DiSBAC2(3): Prepared as a 10 mM stock in DMSO and stored at −20° C. Cell Culture
as §1, with “seeded at 30,000/well in 384-well” for “seeded at 12,000 cells/well in 384-well”, “cultured for 2 hrs at” for “cultured for 18-24 hrs at”, “37° C. before culturing at 27° C. for 24 hrs for the” for “37° C. for the”, “cultured at 27° C. or 37° C.” for “cultured at 37° C.”, “compounds for 16-24 hours.” for “compounds for 18-24 hours.”

What is called EC50 is the midpoint of the concentration-response curve.

T1 sequence (P13569 with tags, fused parts or gaps DEL508-508): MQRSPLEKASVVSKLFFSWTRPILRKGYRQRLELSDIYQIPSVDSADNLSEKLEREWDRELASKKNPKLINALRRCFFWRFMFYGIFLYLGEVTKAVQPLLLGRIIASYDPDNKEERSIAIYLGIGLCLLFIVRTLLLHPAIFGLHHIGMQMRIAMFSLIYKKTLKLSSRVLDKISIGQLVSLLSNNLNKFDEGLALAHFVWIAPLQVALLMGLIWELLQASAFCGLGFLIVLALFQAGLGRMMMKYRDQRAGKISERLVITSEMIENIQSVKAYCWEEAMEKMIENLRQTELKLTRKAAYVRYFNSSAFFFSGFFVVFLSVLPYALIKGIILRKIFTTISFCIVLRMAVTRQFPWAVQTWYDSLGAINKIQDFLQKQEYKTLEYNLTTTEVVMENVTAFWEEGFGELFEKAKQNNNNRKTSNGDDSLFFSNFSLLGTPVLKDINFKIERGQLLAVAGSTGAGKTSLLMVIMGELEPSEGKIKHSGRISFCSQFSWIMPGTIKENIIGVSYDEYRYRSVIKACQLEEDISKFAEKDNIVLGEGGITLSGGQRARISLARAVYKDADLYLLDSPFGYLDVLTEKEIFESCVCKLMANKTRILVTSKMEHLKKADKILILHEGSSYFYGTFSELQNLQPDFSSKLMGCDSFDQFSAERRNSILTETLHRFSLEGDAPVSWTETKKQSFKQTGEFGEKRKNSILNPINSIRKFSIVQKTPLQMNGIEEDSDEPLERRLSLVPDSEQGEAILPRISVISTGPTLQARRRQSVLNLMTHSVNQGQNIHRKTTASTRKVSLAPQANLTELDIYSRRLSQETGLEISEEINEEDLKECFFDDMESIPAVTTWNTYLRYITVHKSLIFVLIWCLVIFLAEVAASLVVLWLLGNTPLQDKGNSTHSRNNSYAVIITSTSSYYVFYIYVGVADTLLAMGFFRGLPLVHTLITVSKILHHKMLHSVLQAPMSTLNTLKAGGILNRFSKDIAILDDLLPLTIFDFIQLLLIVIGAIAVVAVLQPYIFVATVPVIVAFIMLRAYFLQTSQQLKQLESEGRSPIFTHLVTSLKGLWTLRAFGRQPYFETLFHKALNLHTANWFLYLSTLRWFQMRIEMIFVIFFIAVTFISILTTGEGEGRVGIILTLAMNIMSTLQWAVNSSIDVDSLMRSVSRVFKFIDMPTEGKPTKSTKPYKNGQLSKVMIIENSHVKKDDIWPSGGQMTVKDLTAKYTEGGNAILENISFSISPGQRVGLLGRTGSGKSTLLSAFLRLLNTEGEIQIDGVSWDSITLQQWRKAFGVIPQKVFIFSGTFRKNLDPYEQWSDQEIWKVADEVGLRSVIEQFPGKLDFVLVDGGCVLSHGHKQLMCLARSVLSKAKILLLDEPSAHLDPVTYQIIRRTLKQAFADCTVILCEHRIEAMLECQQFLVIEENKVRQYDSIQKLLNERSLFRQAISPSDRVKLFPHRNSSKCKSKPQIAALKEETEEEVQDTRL

Take `CC(C)COc1cc(F)cc(-c2ccc(C(=O)NS(=O)(=O)c3cccc(N)n3)c(N(C)CC(F)F)n2)c1` [Compound 1, N-[(6-amino-2-pyridyl)sulfonyl]-2-[2,2-difluoroethyl(methyl)amino]-6-(3-fluoro-5-isobutoxy-phenyl)pyridine-3-carboxamide]: the Emax was above 80% and the EC50 is below 3 µM.

Regarding `CC(C)CCOc1nc(-c2cc(F)cc(OCC(C)C)c2)ccc1C(=O)NS(=O)(=O)c1cccc(N)n1` [Compound 2, N-[(6-amino-2-pyridyl)sulfonyl]-6-(3-fluoro-5-isobutoxy-phenyl)-2-isopentyloxy-pyridine-3-carboxamide], the Emax is above 80% and the EC50 is below 3 µM.

With `CC(C)COc1cc(F)cc(-c2ccc(C(=O)NS(=O)(=O)c3cccc(N)n3)c(OCCC(C)(C)C)n2)c1` [Compound 3, N-[(6-amino-2-pyridyl)sulfonyl]-2-(3,3-dimethylbutoxy)-6-(3-fluoro-5-isobutoxy-phenyl)pyridine-3-carboxamide], the Emax is above 80% and the EC50 is below 3 µM.

As to `CC(C)COc1cc(F)cc(-c2ccc(C(=O)NS(=O)(=O)c3cccc(N)n3)c(OCCOC(C)(C)C)n2)c1` [Compound 4, N-[(6-amino-2-pyridyl)sulfonyl]-2-(2-tert-butoxyethoxy)-6-(3-fluoro-5-isobutoxy-phenyl)pyridine-3-carboxamide], the Emax lay within 30 to 80% and the EC50 is below 3 µM.

As to `CC(C)COc1cc(F)cc(-c2ccc(C(=O)NS(=O)(=O)c3cccc(N)n3)c(OC(C)C)n2)c1` [Compound 5, N-[(6-amino-2-pyridyl)sulfonyl]-6-(3-fluoro-5-isobutoxy-phenyl)-2-isopropoxy-pyridine-3-carboxamide], the Emax is above 80% and the EC50 is below 3 µM.

For `CC(C)COc1cc(F)cc(-c2ccc(C(=O)NS(=O)(=O)c3cccc(N)n3)c(OC(C)C(F)(F)C(F)F)n2)c1` (stereo not shown) [Compound 6, N-[(6-amino-2-pyridyl)sulfonyl]-6-(3-fluoro-5-isobutoxy-phenyl)-2-(2,2,3,3-tetrafluoro-1-methyl-propoxy)pyridine-3-carboxamide], the Emax was 30 to 80% and the EC50 was below 3 µM.

With `CC(C)COc1cc(F)cc(-c2ccc(C(=O)NS(=O)(=O)c3cccc(N)n3)c3nc(C(F)(F)F)cn23)c1` [Compound 7, N-[(6-amino-2-pyridyl)sulfonyl]-5-(3-fluoro-5-isobutoxy-phenyl)-2-(trifluoromethyl)imidazo[1,2-a]pyridine-8-carboxamide], the Emax is 30 to 80% and the EC50 was below 3 µM.

Turning to `CCN(CC)c1nc(-c2ccc(OC(C)C)nc2)ccc1C(=O)NS(=O)(=O)c1cccc(N)n1` [Compound 8, N-((6-Aminopyridin-2-yl)sulfonyl)-6-(diethylamino)-6′-isopropoxy-[2,3′-bipyridine]-5-carboxamide], the Emax was in the range of 30 to 80% and the EC50 lay in the range of 3 to 10 µM.

With `CC(C)COc1cc(F)cc(-c2ccc(C(=O)NS(=O)(=O)c3cccc(N)n3)c(OC(C)CC(F)(F)F)n2)c1` (stereo not shown) [Compound 9, N-[(6-amino-2-pyridyl)sulfonyl]-6-(3-fluoro-5-isobutoxy-phenyl)-2-(3,3,3-trifluoro-1-methyl-propoxy)pyridine-3-carboxamide], the Emax lay in the range of 30 to 80% and the EC50 is below 3 µM.

As for `COc1nc(-c2cc(F)cc(OCC(C)C)c2)ccc1C(=O)NS(=O)(=O)c1cccc(N)n1` [Compound 10, N-[(6-amino-2-pyridyl)sulfonyl]-6-(3-fluoro-5-isobutoxy-phenyl)-2-methoxy-pyridine-3-carboxamide], the Emax lay in the range of 30 to 80% and the EC50 was below 3 µM.

Turning to `CCCCCOc1nc(-c2cc(F)cc(OCC(C)C)c2)ccc1C(=O)NS(=O)(=O)c1cccc(N)n1` [Compound 11, N-[(6-amino-2-pyridyl)sulfonyl]-6-(3-fluoro-5-isobutoxy-phenyl)-2-pentoxy-pyridine-3-carboxamide], the Emax was above 80% and the EC50 was below 3 µM.

For the compound `CCC(C)C(C)Oc1nc(-c2cc(F)cc(OCC(C)C)c2)ccc1C(=O)NS(=O)(=O)c1cccc(N)n1` (stereo not shown) [Compound 12, N-[(6-amino-2-pyridyl)sulfonyl]-2-(1,2-dimethylbutoxy)-6-(3-fluoro-5-isobutoxy-phenyl)pyridine-3-carboxamide], the Emax was above 80% and the EC50 is below 3 µM.

With `CCOCCOc1nc(-c2cc(F)cc(OCC(C)C)c2)ccc1C(=O)NS(=O)(=O)c1cccc(N)n1` [Compound 13, N-[(6-amino-2-pyridyl)sulfonyl]-2-(2-ethoxyethoxy)-6-(3-fluoro-5-isobutoxy-phenyl)pyridine-3-carboxamide], the Emax lay in the range of 30 to 80% and the EC50 is below 3 µM.

In the case of `CCN(c1nc(-c2ccc(OC(C)C)nc2)ccc1C(=O)NS(=O)(=O)c1cccc(N)n1)C(C)C` [Compound 14, N-[(6-amino-2-pyridyl)sulfonyl]-2-[ethyl(isopropyl)amino]-6-(6-isopropoxy-3-pyridyl)pyridine-3-carboxamide], the Emax is 30 to 80% and the EC50 was below 3 µM.

`CC(C)(C)COc1nc(C(C)(C)C)ccc1C(=O)NS(=O)(=O)c1cccc(N)n1` [Compound 15, N-[(6-amino-2-pyridyl)sulfonyl]-6-tert-butyl-2-(2,2-dimethylpropoxy)pyridine-3-carboxamide]: the Emax is 30 to 80% and the EC50 is below 3 µM.

On to `CCN(c1nc(-c2cc(F)cc(OCC(C)C)c2)ccc1C(=O)NS(=O)(=O)c1ccn[nH]1)C(C)C` [Compound 16, 2-[ethyl(isopropyl)amino]-6-(3-fluoro-5-isobutoxy-phenyl)-N-(1H-pyrazol-5-ylsulfonyl)pyridine-3-carboxamide], for which the Emax is above 80% and the EC50 is below 3 µM.

As for `CC(C)COc1cc(F)cc(-c2ccc(C(=O)NS(=O)(=O)c3cccc(N)n3)c(N(C)[C@@H](C)C(F)(F)F)n2)c1` [Compound 17, N-[(6-amino-2-pyridyl)sulfonyl]-6-(3-fluoro-5-isobutoxy-phenyl)-2-[methyl-[(1 S)-2,2,2-trifluoro-1-methyl-ethyl]amino]pyridine-3-carboxamide], the Emax is above 80% and the EC50 was below 3 µM.

In the case of `CCC(COC)Oc1nc(-c2cc(F)cc(OCC(C)C)c2)ccc1C(=O)NS(=O)(=O)c1cccc(N)n1` (stereo not shown) [Compound 18, N-[(6-amino-2-pyridyl)sulfonyl]-6-(3-fluoro-5-isobutoxy-phenyl)-2-[1-(methoxymethyl)propoxy]pyridine-3-carboxamide], the Emax was 30 to 80% and the concentration for a half-maximal effect (EC50) is below 3 µM.

With `CC(C)COc1cc(F)cc(-c2ccc(C(=O)NS(=O)(=O)c3cccc(N)n3)c(N(C)C)n2)c1` [Compound 19, N-[(6-amino-2-pyridyl)sulfonyl]-2-(dimethylamino)-6-(3-fluoro-5-isobutoxy-phenyl)pyridine-3-carboxamide], the Emax is above 80% and the EC50 is below 3 µM.

`COC[C@H](C)Oc1nc(-c2cc(F)cc(OCC(C)C)c2)ccc1C(=O)NS(=O)(=O)c1cccc(N)n1` [Compound 20, N-[(6-amino-2-pyridyl)sulfonyl]-6-(3-fluoro-5-isobutoxy-phenyl)-2-[(1S)-2-methoxy-1-methyl-ethoxy]pyridine-3-carboxamide]: the Emax fell in the range of 30 to 80% and the EC50 is below 3 µM.

(Values after patent publication US10738030B2, “Modulators of cystic fibrosis transmembrane conductance regulator” (Vertex Pharmaceuticals Incorporated, priority 2016, dated 2020).)
